Test results taken from patent US9725442B2, “Heterocyclic derivative having PGD2 receptor antagonist activity” (Shionogi & Co., Ltd., priority 2011, dated 2017).
Where two headings read alike, the source gives them in different places.

How the values were obtained:
CRTH2 = CRTH2 (Homo sapiens (Human), UniProt Q9Y5Y4); assay: CRTH2 receptor binding inhibitory activity ([3H]-PGD2 displacement, membranes of CRTH2-expressing K562 cell)
Protocol: Cell membrane was prepared from CRTH2-expressing K562 cell. The cell membrane (20 μg/well) was mixed with reaction buffer (50 mM Tris/HCl, pH 7.4, 10 mM MgCl2). Then, [^3H]-PGD2 was added to the mixture and incubated for 60 min at room temperature. […] Then, the mixture was filtrated with glass paper immediately. The filter paper was washed several times and radio activity on the filter was measured. Specific binding was defined as difference between total and non-specific binding (radio activity with 10 μM PGD2). Ki values for each compound were calculated from displacement curve.

Human DP1 receptor = Human DP1 receptor (Homo sapiens (Human), UniProt Q13258); assay: Human DP1 inhibitory activity in DP1-expressing cell (PGD2-induced cAMP); assay type: cell-based; details: category of cAMP IC50, human DP1 receptor expressing Jurkut cell
Protocol: Compounds were categorized as AA (cAMP is less than 100 nM) and A (cAMP is more than 100 nM and less than 5000 nM) as shown in Table 99 and 100.

[1] = CRTH2 receptor binding, [3H]-PGD2 displacement, membrane of CRTH2-expressing K562 cell, categorized AAAA/AAA, read-out: Ki
[2] = [3H]-PGD2 displacement, membrane of CRTH2-expressing K562 cell, read-out: Ki

Sequence of CRTH2 (Q9Y5Y4 whole entry): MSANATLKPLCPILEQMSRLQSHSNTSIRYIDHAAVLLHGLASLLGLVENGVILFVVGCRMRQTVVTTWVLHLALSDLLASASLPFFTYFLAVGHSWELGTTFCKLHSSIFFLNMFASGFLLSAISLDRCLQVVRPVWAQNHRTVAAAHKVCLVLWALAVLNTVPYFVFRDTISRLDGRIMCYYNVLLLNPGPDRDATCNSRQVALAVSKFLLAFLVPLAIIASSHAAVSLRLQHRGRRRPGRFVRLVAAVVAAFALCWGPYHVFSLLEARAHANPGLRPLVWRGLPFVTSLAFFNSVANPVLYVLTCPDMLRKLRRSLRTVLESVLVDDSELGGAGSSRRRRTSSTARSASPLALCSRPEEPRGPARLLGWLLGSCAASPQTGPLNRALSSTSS
Sequence of Human DP1 receptor (Q13258 whole entry): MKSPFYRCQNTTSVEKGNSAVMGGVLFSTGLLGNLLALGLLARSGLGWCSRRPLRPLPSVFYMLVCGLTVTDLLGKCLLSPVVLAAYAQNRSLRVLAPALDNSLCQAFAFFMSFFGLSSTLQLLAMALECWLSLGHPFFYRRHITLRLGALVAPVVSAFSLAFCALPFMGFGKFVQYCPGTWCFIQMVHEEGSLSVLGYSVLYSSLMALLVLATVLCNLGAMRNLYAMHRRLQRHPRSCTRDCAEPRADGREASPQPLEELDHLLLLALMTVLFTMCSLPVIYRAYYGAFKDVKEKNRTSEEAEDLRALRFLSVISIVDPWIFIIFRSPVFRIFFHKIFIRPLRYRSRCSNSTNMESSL

C=CC[C@@H]1CN(S(=O)(=O)c2ccc(OC(C)C)cc2)C[C@@H]1n1nc(CC(=O)O)c2ccc(F)cc21 [Compound I-32]
Ki (CRTH2; [1]): < 100 nM | IC50 (Human DP1 receptor): < 100 nM

CCC[C@@H]1CN(S(=O)(=O)c2ccc(OC(C)C)cc2)C[C@@H]1n1nc(CC(=O)O)c2ccc(F)cc21 [Compound I-34]
Ki (CRTH2; [1]): < 100 nM | Ki (CRTH2; [2]): 77 nM | IC50 (Human DP1 receptor): < 100 nM

CC(C)Oc1ccc(S(=O)(=O)N2C[C@@H](C)[C@@H](n3nc(CC(=O)O)c4ccccc43)C2)cc1 [Compound I-35]
Ki (CRTH2; [1]): < 100 nM | IC50 (Human DP1 receptor): < 100 nM

CC(C)Oc1ccc(S(=O)(=O)N2C[C@@H](n3nc(CC(=O)O)c4ccc(F)cc43)[C@@H](C)C2)cc1 [Compound I-36]
Ki (CRTH2; [1]): < 100 nM | IC50 (Human DP1 receptor): 100 to 5000 nM

C=C[C@@H]1CN(S(=O)(=O)c2ccc(OC(C)C)cc2)C[C@@H]1n1nc(CC(=O)O)c2ccc(F)cc21 [Compound I-38]
Ki (CRTH2; [1]): < 100 nM | IC50 (Human DP1 receptor): < 100 nM

CC[C@@H]1CN(S(=O)(=O)c2ccc(OC(C)C)cc2)C[C@@H]1n1nc(CC(=O)O)c2ccc(F)cc21 [Compound I-39]
Ki (CRTH2; [1]): < 100 nM | IC50 (Human DP1 receptor): < 100 nM

CC(C)Oc1ccc(S(=O)(=O)N2C[C@@H](CCO)[C@@H](n3nc(CC(=O)O)c4ccc(F)cc43)C2)cc1 [Compound I-40]
Ki (CRTH2; [1]): < 100 nM | IC50 (Human DP1 receptor): 100 to 5000 nM

CC(C)Oc1ccc(S(=O)(=O)N2C[C@@H](C3CC3)[C@@H](n3nc(CC(=O)O)c4ccc(F)cc43)C2)cc1 [Compound I-41]
Ki (CRTH2; [1]): < 100 nM | IC50 (Human DP1 receptor): 100 to 5000 nM

CC(C)Oc1ccc(S(=O)(=O)N2C[C@@H](CF)[C@@H](n3nc(CC(=O)O)c4ccc(F)cc43)C2)cc1 [Compound I-42]
Ki (CRTH2; [1]): < 100 nM | IC50 (Human DP1 receptor): 100 to 5000 nM

C=C1CN(S(=O)(=O)c2ccc(OC(C)C)cc2)CC1n1nc(CC(=O)O)c2ccc(F)cc21 (stereo not drawn) [Compound I-43]
Ki (CRTH2; [1]): < 100 nM | IC50 (Human DP1 receptor): 100 to 5000 nM

CC(C)Oc1ccc(S(=O)(=O)N2C[C@@H](CC(F)F)[C@@H](n3nc(CC(=O)O)c4ccc(F)cc43)C2)cc1 [Compound I-44]
Ki (CRTH2; [1]): < 100 nM | IC50 (Human DP1 receptor): 100 to 5000 nM

CC(C)Oc1ccc(S(=O)(=O)N2C[C@@H](CCF)[C@@H](n3nc(CC(=O)O)c4ccc(F)cc43)C2)cc1 [Compound I-45]
Ki (CRTH2; [1]): < 100 nM | IC50 (Human DP1 receptor): 100 to 5000 nM

CC(C)Oc1ccc(S(=O)(=O)N2C[C@H](n3nc(CC(=O)O)c4ccc(F)cc43)C[C@@H]2C)cc1 [Compound I-46]
Ki (CRTH2; [1]): < 100 nM | IC50 (Human DP1 receptor): < 100 nM

C[C@@H]1CN(S(=O)(=O)c2ccc(F)cc2)C[C@@H]1n1nc(CC(=O)O)c2ccc(F)cc21 [Compound I-48]
Ki (CRTH2; [1]): < 100 nM | IC50 (Human DP1 receptor): 100 to 5000 nM

C[C@@H]1CN(S(=O)(=O)c2ccc(C3CC3)cc2Cl)C[C@@H]1n1nc(CC(=O)O)c2ccc(F)cc21 [Compound I-53]
Ki (CRTH2; [1]): < 100 nM | IC50 (Human DP1 receptor): < 100 nM

CC(C)Oc1ccc(S(=O)(=O)N2C[C@H](n3nc(CC(=O)O)c4ccc(F)cc43)CC23CC3)cc1 [Compound I-54]
Ki (CRTH2; [1]): < 100 nM | IC50 (Human DP1 receptor): 100 to 5000 nM

CC(C)Oc1ccc(S(=O)(=O)N2C[C@H](n3nc(CC(=O)O)c4ccc(F)cc43)C[C@@H]2c2nc[nH]n2)cc1 [Compound I-55]
Ki (CRTH2; [1]): 100 to 5000 nM | IC50 (Human DP1 receptor): 100 to 5000 nM

CC(C)Oc1ccc(S(=O)(=O)N2C[C@@H](C)[C@@H](n3nc(CC(=O)O)c4ccc(F)cc43)C2)c(C#N)c1 [Compound I-58]
Ki (CRTH2; [1]): < 100 nM | IC50 (Human DP1 receptor): < 100 nM

CC(C)Oc1ccc(S(=O)(=O)N2C[C@@H](C)[C@@H](n3nc(CC(=O)O)c4cccc(F)c43)C2)cc1 [Compound I-59]
Ki (CRTH2; [1]): < 100 nM | Ki (CRTH2; [2]): 23 nM | IC50 (Human DP1 receptor): 100 to 5000 nM

CC(C)Oc1ccc(S(=O)(=O)N2C[C@H](n3nc(CC(=O)O)c4cccc(F)c43)C[C@@H]2C)cc1 [Compound I-60]
Ki (CRTH2; [1]): 100 to 5000 nM | IC50 (Human DP1 receptor): < 100 nM

CC(C)Oc1ccc(S(=O)(=O)N2C[C@@H](C)[C@@H](n3nc(CC(=O)O)c4cccc(Cl)c43)C2)cc1 [Compound I-61]
Ki (CRTH2; [1]): < 100 nM | IC50 (Human DP1 receptor): 100 to 5000 nM

Cc1ccc2c(CC(=O)O)nn([C@H]3CN(S(=O)(=O)c4ccc(OC(C)C)cc4)C[C@H]3C)c2c1 [Compound I-62]
Ki (CRTH2; [1]): < 100 nM | IC50 (Human DP1 receptor): < 100 nM

Cc1ccc2c(CC(=O)O)nn([C@H]3CN(S(=O)(=O)c4ccc(OC(C)C)cc4)C[C@H]3C)c2c1 [Compound I-63]
Ki (CRTH2; [2]): 3.1 nM | IC50 (Human DP1 receptor): < 100 nM

CC(C)Oc1ccc(S(=O)(=O)N2C[C@@H](CO)[C@@H](n3nc(CC(=O)O)c4ccc(F)cc43)C2)cc1 [Compound I-64]
Ki (CRTH2; [1]): < 100 nM | IC50 (Human DP1 receptor): 100 to 5000 nM

CON=C[C@@H]1CN(S(=O)(=O)c2ccc(OC(C)C)cc2)C[C@@H]1n1nc(CC(=O)O)c2ccc(F)cc21 [Compound I-65]
Ki (CRTH2; [1]): < 100 nM | IC50 (Human DP1 receptor): 100 to 5000 nM

CC(C)Oc1ccc(S(=O)(=O)N2C[C@@H](C)[C@@H](n3nc(CC(=O)O)c4cc(F)c(F)cc43)C2)cc1 [Compound I-68]
Ki (CRTH2; [1]): < 100 nM | IC50 (Human DP1 receptor): < 100 nM

CC(C)Oc1ccc(S(=O)(=O)N2C[C@@H](C)[C@@H](n3nc(CC(=O)O)c4cc(F)ccc43)C2)cc1 [Compound I-69]
Ki (CRTH2; [1]): 100 to 5000 nM | IC50 (Human DP1 receptor): < 100 nM

CC(C)Oc1ccc(S(=O)(=O)N2CC[C@H](n3nc(CC(=O)O)c4ccc(F)cc43)C[C@H]2CO)cc1 [Compound I-72]
Ki (CRTH2; [1]): 100 to 5000 nM | IC50 (Human DP1 receptor): 100 to 5000 nM

CC(C)Oc1ccc(S(=O)(=O)N2[C@H](C)C[C@H](n3nc(CC(=O)O)c4ccc(F)cc43)C[C@@H]2C)cc1 [Compound I-73]
Ki (CRTH2; [1]): 100 to 5000 nM | IC50 (Human DP1 receptor): < 100 nM

CC(C)Oc1ccc(S(=O)(=O)N2CC[C@H](n3nc(CC(=O)O)c4ccc(F)cc43)C[C@@H]2C)cc1 [Compound I-76]
Ki (CRTH2; [1]): 100 to 5000 nM | IC50 (Human DP1 receptor): < 100 nM

C[C@H]1C[C@@H](n2nc(CC(=O)O)c3ccc(F)cc32)CCN1S(=O)(=O)c1ccc(F)cc1 [Compound I-77]
Ki (CRTH2; [1]): < 100 nM | Ki (CRTH2; [2]): 48 nM | IC50 (Human DP1 receptor): 100 to 5000 nM

CC(C)Oc1ccc(S(=O)(=O)N2CC[C@H](n3nc(CC(=O)O)c4ccc(F)cc43)C[C@H]2C)cc1 [Compound I-78]
Ki (CRTH2; [1]): 100 to 5000 nM | IC50 (Human DP1 receptor): 100 to 5000 nM

C[C@@H]1C[C@@H](n2nc(CC(=O)O)c3ccc(F)cc32)CCN1S(=O)(=O)c1ccc(F)cc1 [Compound I-79]
Ki (CRTH2; [1]): 100 to 5000 nM | IC50 (Human DP1 receptor): 100 to 5000 nM

O=C(O)Cc1nn([C@@H]2C[C@H]3CC[C@@H](C2)N3S(=O)(=O)c2ccc(F)cc2)c2cc(F)ccc12 [Compound I-80]
Ki (CRTH2): 100 to 5000 nM | IC50 (Human DP1 receptor): 100 to 5000 nM

CC(C)Oc1ccc(S(=O)(=O)N2[C@@H]3CC[C@H]2C[C@H](n2nc(CC(=O)O)c4ccc(F)cc42)C3)cc1 [Compound I-81]
Ki (CRTH2): 100 to 5000 nM | IC50 (Human DP1 receptor): 100 to 5000 nM

O=C(O)Cc1nn([C@H]2C[C@H]3CC[C@@H](C2)N3S(=O)(=O)c2ccc(F)cc2)c2cc(F)ccc12 [Compound I-82]
Ki (CRTH2): 100 to 5000 nM | IC50 (Human DP1 receptor): 100 to 5000 nM

CC(C)Oc1ccc(S(=O)(=O)N2[C@@H]3CC[C@H]2C[C@@H](n2nc(CC(=O)O)c4ccc(F)cc42)C3)cc1 [Compound I-83]
Ki (CRTH2): 100 to 5000 nM | IC50 (Human DP1 receptor): < 100 nM

CC(C)Oc1ccc(S(=O)(=O)N2C[C@H](n3nc(CC(=O)O)c4ccc(F)cc43)[C@@](C)(O)C2)cc1 [Compound I-84]
Ki (CRTH2; [1]): < 100 nM | IC50 (Human DP1 receptor): 100 to 5000 nM

CC(C)Oc1ccc(S(=O)(=O)N2C[C@H](n3nc(CC(=O)O)c4ccccc43)[C@@](C)(O)C2)cc1 [Compound I-86]
Ki (CRTH2; [1]): < 100 nM | IC50 (Human DP1 receptor): 100 to 5000 nM

Cc1ccc2c(CC(=O)O)nn([C@H]3CN(S(=O)(=O)c4ccc(OC(C)C)cc4)C[C@]3(C)O)c2c1 [Compound I-87]
Ki (CRTH2; [1]): < 100 nM | IC50 (Human DP1 receptor): 100 to 5000 nM

CC(C)Oc1ccc(S(=O)(=O)N2C[C@H](n3nc(CC(=O)O)c4ccccc43)[C@](C)(F)C2)cc1 [Compound I-88]
Ki (CRTH2; [1]): < 100 nM | IC50 (Human DP1 receptor): < 100 nM

CC(C)Oc1ccc(S(=O)(=O)N2C[C@H](n3nc(CC(=O)O)c4ccccc43)C[C@@H]2C(F)F)cc1 [Compound I-90]
Ki (CRTH2; [1]): 100 to 5000 nM | IC50 (Human DP1 receptor): < 100 nM

CC(C)Oc1ccc(S(=O)(=O)N2C[C@H](n3nc(CC(=O)O)c4ccccc43)C[C@@H]2C)cc1 [Compound I-91]
Ki (CRTH2; [1]): < 100 nM | IC50 (Human DP1 receptor): < 100 nM

Cc1ccc2c(CC(=O)O)nn([C@@H]3C[C@H](C(F)F)N(S(=O)(=O)c4ccc(OC(C)C)cc4)C3)c2c1 [Compound I-92]
Ki (CRTH2; [1]): 100 to 5000 nM | IC50 (Human DP1 receptor): < 100 nM

CC(C)Oc1ccc(S(=O)(=O)N2C[C@H](n3nc(CC(=O)O)c4ccc(Cl)cc43)C[C@@H]2C(F)F)cc1 [Compound I-93]
Ki (CRTH2; [1]): 100 to 5000 nM | IC50 (Human DP1 receptor): < 100 nM
